Test results as given in patent US20260285816A1, “Piperazinyl-Modified Quinazolinyl-Aryl Urea Derivative, And Preparation Method And Use Thereof” (Guangxi Normal University, priority 2025, published 2026).
Like-named read-outs stand apart in the source and are kept apart here.

How the values were obtained:
Format in all cases: cell-based, human
J82 cells = assay: CCK-8 anti-proliferative assay, J82; settings: Homo sapiens, J82, co-incubated 48 h, read-out: Anti-proliferative activity (IC50 ± standard deviation) J82
Method: (§1) The obtained quinazolinyl-aryl urea derivatives were screened for compounds with optimal activity using the following method.
(§2) Experimental Procedure for Anti-Proliferative Activity Evaluation: The CCK-8 assay was employed. Cells in logarithmic growth phase were harvested, adjusted to appropriate density, and uniformly seeded into 96-well plates using a multichannel pipette (180 μL cell suspension containing complete medium per well, 5,000 cells/well). Blank control wells (containing basal medium, CCK-8 solution, and DMSO only) were set. Cells were incubated at 37° C. under 5% CO2. After 70% confluency was reached, test compounds (target compounds/positive controls) were added at final concentrations of 1, 2, 4, 6, 8, 12, 16, 24, and 30 μM (3 repeated wells per concentration). Compounds were pre-dissolved in DMSO, sterilized, and diluted with medium before adding 20 μL/well. After co-incubation for designated durations, 10 μL CCK-8 solution was added per well followed by 1-4 h incubation (different cells have different incubation times). […] Inhibition rates were calculated as: (ODcontrol−ODtreatment)/ODcontrol×100%. Median inhibitory concentrations (IC50 values) were derived using Origin v8.0 software.

UM-UC-3 cells = assay: CCK-8 anti-proliferative assay, UM-UC-3; settings: Homo sapiens, UMUC3, co-incubated 48 h, read-out: Anti-proliferative activity (IC50 ± standard deviation) UM-UC-3
Method: as §1, §2

T24 cells = assay: CCK-8 anti-proliferative assay, T24; settings: Homo sapiens, T-24, co-incubated 48 h, read-out: Anti-proliferative activity (IC50 ± standard deviation) T24
Description: (§3) The obtained quinazolinyl-aryl urea derivatives were screened for compounds with optimal activity using the following method. All cell lines employed in this experiment were of human origin, including: bladder cancer cells: J82, UM-UC-3, T24, 5637, pancreatic cancer cells: BxPC-3, PANC-1, osteosarcoma cells: 143B, MG-63, cervical cancer cells: HeLa, breast cancer cells: MCF-7, NSCLC cells: A549, hepatoblastoma cells: Hep G2, and ovarian cancer cells: SK-OV-3, as well as normal cell lines: immortalized ureteral epithelial cells (SV-HUC-1), embryonic lung fibroblasts (WI-38).
(§4) Experimental Procedure for Anti-Proliferative Activity Evaluation: The CCK-8 assay was employed. Cells in logarithmic growth phase were harvested, adjusted to appropriate density, and uniformly seeded into 96-well plates using a multichannel pipette (180 μL cell suspension containing complete medium per well, 5,000 cells/well). Blank control wells (containing basal medium, CCK-8 solution, and DMSO only) were set. Cells were incubated at 37° C. under 5% CO2. After 70% confluency was reached, test compounds (target compounds/positive controls) were added at final concentrations of 1, 2, 4, 6, 8, 12, 16, 24, and 30 μM (3 repeated wells per concentration). Compounds were pre-dissolved in DMSO, sterilized, and diluted with medium before adding 20 μL/well. After co-incubation for designated durations, 10 μL CCK-8 solution was added per well followed by 1-4 h incubation (different cells have different incubation times). The reaction was terminated, and OD (optical density) values at 450 nm were measured using a microplate reader. Inhibition rates were calculated as: (ODcontrol−ODtreatment)/ODcontrol×100%. Median inhibitory concentrations (IC50 values) were derived using Origin v8.0 software.

5637 cells = assay: CCK-8 anti-proliferative assay, 5637; settings: Homo sapiens, co-incubated 48 h, read-out: Anti-proliferative activity (IC50 ± standard deviation) 5637
Method: as §1, §2

143B cells = assay: CCK-8 anti-proliferative assay, 143B; settings: Homo sapiens, 143B, co-incubated 48 h, read-out: Anti-proliferative activity (IC50 ± standard deviation) 143B
Description: as §3, §4

MG-63 cells = assay: CCK-8 anti-proliferative assay, MG-63; settings: Homo sapiens, MG-63, co-incubated 48 h, read-out: Anti-proliferative activity (IC50 ± standard deviation) MG-63
Description: as §3, §4

BxPC-3 cells = assay: CCK-8 anti-proliferative assay, BxPC-3; settings: for IC50: Homo sapiens, BXPC-3, co-incubated 48 h, read-out: Anti-proliferative activity (IC50 ± standard deviation) BxPC-3
Summary of the method: (§5)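 Logarithmic-phase cells are plated at 5,000 cells per well and incubated at 37° C. with 5% CO2. At 70% confluency, compound is added at nine final concentrations from 1 to 30 μM. After exposure, CCK-8 is added and OD at 450 nm measured to calculate IC50.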

PANC-1 cells = assay: CCK-8 anti-proliferative assay, PANC-1; settings: for IC50: Homo sapiens, PANC-1, co-incubated 48 h, read-out: Anti-proliferative activity (IC50 ± standard deviation) PANC-1
Summary of the method: as §5

HeLa cells = assay: CCK-8 anti-proliferative assay, HeLa; settings: Homo sapiens, HeLa, co-incubated 48 h, read-out: Anti-proliferative activity (IC50 ± standard deviation) HeLa
Method: as §1, §2

MCF-7 cells = assay: CCK-8 anti-proliferative assay, MCF-7; settings: Homo sapiens, MCF7, co-incubated 48 h, read-out: Anti-proliferative activity (IC50 ± standard deviation) MCF-7
Method: as §1, §2

A549 cells = assay: CCK-8 anti-proliferative assay, A549; settings: Homo sapiens, A549, co-incubated 48 h, read-out: Anti-proliferative activity (IC50 ± standard deviation) A549
Method: as §1, §2

Hep G2 cells = assay: CCK-8 anti-proliferative assay, Hep G2; settings: for IC50: Homo sapiens, HepG2
Description: as §3, §4

SK-OV-3 cells = assay: CCK-8 anti-proliferative assay, SK-OV-3; settings: Homo sapiens, SK-OV-3, co-incubated 48 h, read-out: Anti-proliferative activity (IC50 ± standard deviation) SK-OV-3
Method: as §1, §2

[1] = tested on: immortalized ureteral epithelial cells (SV-HUC-1); assay: CCK-8 anti-proliferative assay, normal cells SV-HUC-1; settings: Homo sapiens, SV-HUC1, normal cells, co-incubated 48 h, read-out: Anti-proliferative activity (IC50 ± standard deviation) SV-HUC-1
Method: as §1, §2

[2] = tested on: embryonic lung fibroblasts (WI-38); assay: CCK-8 anti-proliferative assay, normal cells WI-38; settings: Homo sapiens, read-out: Anti-proliferative activity (IC50 ± standard deviation) WI-38
Description: as §3, §4

[3] = Table 8, co-incubated 48 h, read-out: Anti-proliferative activity (IC50 ± standard deviation) Hep G2
[4] = WI-38, Table 9, co-incubated 48 h

Compound | IC50 (T24 cells; Table 6) [µM] | IC50 (BxPC-3 cells; Table 7) [µM] | IC50 (PANC-1 cells; Table 7) [µM] | IC50 (HeLa cells; Table 8) [µM] | IC50 (MCF-7 cells; Table 8) [µM] | IC50 (A549 cells; Table 8) [µM] | IC50 (SK-OV-3 cells; Table 9) [µM] | IC50 (J82 cells; Table 6) [µM] | IC50 (UM-UC-3 cells; Table 6) [µM] | IC50 (5637 cells; Table 6) [µM] | IC50 (143B cells; Table 7) [µM] | IC50 (MG-63 cells; Table 7) [µM] | IC50 (Hep G2 cells; [3]) [µM] | IC50 ([1]; Table 9) [µM] | IC50 [2, 4] [µM] | other results
COc1cc2ncnc(NCc3cccc(NC(=O)Nc4cccc(C)c4)c3)c2cc1OCCCCCCN1CCN(CCN2CCOCC2)CC1 [Compound 8-1c, N-(3-(((7-methoxy-6-((6-(4-(2-morpholinoethyl)piperazin-1-yl)hexyl)oxy)quinazolin-4-yl)amino)methyl)phenyl)-N′-(3-methylphenyl)urea] | 11.5 ± 0.66 | 16.5 ± 0.92 | > 30 | > 30 | 25.8 ± 2.53 | 18.4 ± 0.98 | 9.73 ± 0.69 | 6.05 ± 0.63 | 14.1 ± 0.82 | 13 ± 0.85 | 13 ± 0.84 | 7.34 ± 0.65 | 7.27 ± 0.51 | 16 ± 0.81 | 13.9 ± 0.73 | –
COc1cc2ncnc(NCc3cccc(NC(=O)Nc4ccc(C)cc4)c3)c2cc1OCCCCCCN1CCN(CCN2CCOCC2)CC1 [Compound 8-1d, N-(3-(((7-methoxy-6-((6-(4-(2-morpholinoethyl)piperazin-1-yl)hexyl)oxy)quinazolin-4-yl)amino)methyl)phenyl)-N′-(4-methylphenyl)urea] | 6.59 ± 0.79 | 13.7 ± 0.73 | 27.4 ± 2.24 | 16.1 ± 0.71 | > 30 | 15.8 ± 0.84 | 9.26 ± 0.87 | 5.89 ± 0.57 | 13.2 ± 0.77 | 7.72 ± 0.66 | 8.62 ± 0.53 | 7.73 ± 0.49 | 7.04 ± 0.48 | 12.8 ± 0.66 | 12.6 ± 0.92 | –
COc1cc2ncnc(NCc3cccc(NC(=O)Nc4ccc(C)cc4C)c3)c2cc1OCCCCCCN1CCC(CN2CCN(c3ccccn3)CC2)CC1 [Compound 8-2e, N-(3-(((7-methoxy-6-((6-(4-((4-(pyridin-2-yl)piperazin-1-yl)methyl)piperidin-1-yl)hexyl)oxy)quinazolin-4-yl)amino)methyl)phenyl)-N′-(2,4-dimethylphenyl)urea] | – | – | – | – | – | – | – | – | – | – | – | – | – | – | – | IC50 (J82 cells; Table 10): 5.31 ± 0.26 µM; IC50 (UM-UC-3 cells; Table 10): 6.68 ± 0.47 µM; IC50 (T24 cells; Table 10): 5.57 ± 0.36 µM; IC50 (5637 cells; Table 10): 4.31 ± 0.42 µM; IC50 (143B cells; Table 11): 5.19 ± 0.33 µM; IC50 (MG-63 cells; Table 11): 7.03 ± 0.71 µM; Sensitivity of BxPC-3 / anti-proliferative activity against BxPC-3, in words (BxPC-3 cells): heightened sensitivity; IC50 (BxPC-3 cells; Table 11): 5.46 ± 0.44 µM; Sensitivity of PANC-1, in words (PANC-1 cells): heightened sensitivity; IC50 (PANC-1 cells; Table 11): 8.37 ± 0.66 µM; IC50 (HeLa cells; Table 12): 5.26 ± 0.29 µM; IC50 (MCF-7 cells; Table 12): 7.65 ± 0.69 µM; IC50 (A549 cells; Table 13): 4.92 ± 0.29 µM; Anti-proliferative activity against Hep G2 versus comparative series, in words (Hep G2 cells): significantly better than that of 9a to 9y; IC50 (Hep G2 cells; Table 12, co-incubated 48 h, read-out: Anti-proliferative activity (IC50 ± standard deviation) Hep G2): 3.68 ± 0.19 µM; IC50 (Hep G2 cells; read-out: IC50 on Hep G2): 3.68 ± 0.19 µM; IC50 (SK-OV-3 cells; Table 12): 7.26 ± 0.72 µM; IC50 ([1]; Table 13): 7.56 ± 0.38 µM; IC50 ([2]; WI-38, Table 13, co-incubated 48 h): 10.9 ± 0.66 µM

Continued, in another order:

IC50 (T24 cells; Table 6) [µM] | IC50 (BxPC-3 cells; Table 7) [µM] | IC50 (PANC-1 cells; Table 7) [µM] | IC50 (HeLa cells; Table 8) [µM] | IC50 (MCF-7 cells; Table 8) [µM] | IC50 (A549 cells; Table 8) [µM] | IC50 (SK-OV-3 cells; Table 9) [µM] | Compound | IC50 (J82 cells; Table 6) [µM] | IC50 (UM-UC-3 cells; Table 6) [µM] | IC50 (5637 cells; Table 6) [µM] | IC50 (143B cells; Table 7) [µM] | IC50 (MG-63 cells; Table 7) [µM] | IC50 (Hep G2 cells; [3]) [µM] | IC50 ([1]; Table 9) [µM] | IC50 [2, 4] [µM] | other results
3.91 ± 0.34 | 7.39 ± 0.62 | 11.9 ± 0.94 | 5.76 ± 0.57 | 4.12 ± 0.15 | 8.62 ± 0.55 | 8.51 ± 0.87 | COc1cc2ncnc(NCc3cccc(NC(=O)Nc4ccc(Cl)c(C(F)(F)F)c4)c3)c2cc1OCCCCCCN1CCN(CCN2CCOCC2)CC1 [Compound 8-1r] | 6.33 ± 0.61 | 6.14 ± 0.53 | 3.59 ± 0.16 | 5.41 ± 0.39 | 5.31 ± 0.46 | 5.59 ± 0.45 | 7.02 ± 0.53 | 7.89 ± 0.66 | –
6.89 ± 0.48 | 7.61 ± 0.76 | 9.63 ± 0.92 | 8.03 ± 0.62 | 8.49 ± 0.88 | 12.3 ± 0.84 | 6.19 ± 0.44 | CCc1cccc(CC)c1NC(=O)Nc1cccc(CNc2ncnc3cc(OC)c(OCCCCCCN4CCN(CCN5CCOCC5)CC4)cc23)c1 [Compound 8-1h, N-(3-(((7-methoxy-6-((6-(4-(2-morpholinoethyl)piperazin-1-yl)hexyl)oxy)quinazolin-4-yl)amino)methyl)phenyl)-N′-(2,6-diethylphenyl)urea] | 5.64 ± 0.39 | 8.74 ± 0.52 | 5.41 ± 0.36 | 4.46 ± 0.24 | 4.92 ± 0.46 | 4.67 ± 0.38 | 17.8 ± 1.59 | 23.2 ± 0.76 | –
